Experimental data from patent US20160228444A1, “NUCLEOSIDE ANALOGS AND USES THEREOF” (Ramot at Tel-Aviv University Ltd., priority 2015, published 2016).

How the values were obtained:
[1] = system: bFGF; assay: bFGF protein and mRNA in tumor and heart of xenograft mice (Western blot, qRT-PCR); format: in vivo; conditions: for expression of mouse bFGF protein in the heart: FIG. 4D; for expression of bFGF in tumors / bFGF mRNA in the tumor: tumor; for bFGF mRNA in the tumor: FIG. 6
Experimental: Tumors and hearts of the mice were rapidly removed, frozen on dry ice and kept at −70° C. Tissue was then homogenized and RNA and proteins extracted using the NucleoSpin® RNA/Protein kit according to the manufacturer's protocol (Macherey-Nagel, GmbH & Co KG).
Total RNA ([…]) was primed by oligo dT and reverse-transcribed by Verso cDNA kit according to the manufacturer's protocol (Thermo Scientific). Analyses of qPCR were performed with Kapa Sybr® Fast (Kapa Biosystems) on a Step One Plus thermocycler (Applied Biosystems). The comparative threshold method was used to calculate the relative gene expression. Values were normalized against glyceraldehyde 3-phosphate dehydrogenase (GAPDH). Expression of the GAPDH mRNA in each individual sample was used to normalize the dataset. The sequences of the primers were as follows: […]
Protein levels in the samples were determined with the BCA protein assay kit (Pierce). The samples were subjected to Western blot analyses. The expression of proteins was visualized using their specified primary antibodies followed by the secondary IgG IRDye® 680DX antibody. Each detected band was quantified using the Odyssey Infrared Imaging System (LI-COR Biosciences) and normalized to the level of actin. The fold increase of a specific protein was determined by the ratio of the band intensity obtained from treated and untreated samples.
The pro-angiogenic factors basic fibroblast growth factor (bFGF) and vascular endothelial growth factor (VEGF) are potent angiogenic stimulators. The expression of bFGF in the tumor and in the heart was evaluated by Western blot and qRT-PCR analyses and expression of VEGF by IHC.

[2] = system: proliferating fibroblasts in cardiac tissue; assay: Proliferating fibroblasts in heart sections (Ki67 / vimentin immunostaining); format: in vivo, mice; conditions: co-administration with doxorubicin, FIGS. 8B, 8C
Description: In addition, by double-staining heart sections by immunostaining for the fibroblast marker vimentin and the proliferation marker Ki67, it was observed that most of the proliferating (Ki67-positive) cells in hearts of doxorubicin-treated mice were fibroblasts (vimentin-positive).

[3] = system: fibrous collagen; assay: Fibrosis in tumor, heart and kidney of U251 xenograft mice (Picrosirius Red / Fast Green); format: in vivo
Experimental: AN446 was tested in vivo using a xenograft of glioblastoma (U251 cells) in mice.

**Q.** With `CCCC(CCC)C(=O)Nc1nc2c(ncn2COCCOC(=O)C(CCC)CCC)c(=O)[nH]1` [AN446, N-valproyl-9-(2-valproyloxy)ethoxymethyl-guanine] as the molecule, how does the “expression of mouse bFGF protein in the heart” value ([1]; co-treatment with Dox) read?
**A.** The value was “significantly increased its expression to a level higher than that observed in naive or vehicle-treated mice”.

**Q.** And the “expression of mouse bFGF protein in the heart” value ([1]; single agent)?
**A.** The value was “unchanged”.

**Q.** And the “expression of bFGF in tumors” value ([1]; combination with Dox)?
**A.** The value was “further diminished”.

**Q.** And the “bFGF mRNA in the tumor” value ([1]; combined treatment with Dox)?
**A.** The value was “suppressed it significantly further”.

**Q.** What about the “bFGF mRNA in the tumor” value ([1]; single agent) of the same molecule?
**A.** The value was “significantly reduced the bFGF mRNA”.

**Q.** And the “expression of bFGF in tumors” value ([1]; single agent, FIGS. 4A, 4B)?
**A.** Its value is “decreased significantly”.

**Q.** And the “doxorubicin-induced proliferation of fibroblasts in cardiac tissue” value [2]?
**A.** Its value is “significantly reduced the doxorubicin-induced proliferation of fibroblasts”.

**Q.** And the “doxorubicin-induced fibrosis in the heart” value ([3]; heart, co-administration with doxorubicin)?
**A.** Its value is “attenuated the doxorubicin-induced fibrosis”.

**Q.** And the “doxorubicin-induced fibrosis in the kidneys” value ([3]; kidneys, co-administration with doxorubicin)?
**A.** Its value is “attenuated the doxorubicin-induced fibrosis”.

**Q.** And the “fibrosis in the tumor” value ([3]; tumor, single agent, FIG. 8A)?
**A.** The value was “reduced fibrosis”.
